Test results reported in article PMC12560828, “Chemical structure drives developmental toxicity of alkyl-substituted naphthalenes in zebrafish” (Environment international, 2025).

Tests used:
[1] = test system: early life stage zebrafish; parameters: method as in Geier et al., 2018a; conditions: 96-well plate format; ref Geier et al., 2018a; cited from earlier work
[2] = test system: zebrafish larvae, 120 hpf; experiment: Larval photomotor response (LPR) assay after vial exposure; assay type: in vivo, Danio rerio; conditions: LPR
Outline: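 Embryos bleached at 6 hpf, exposed in sealed glass vials (8 per vial, DMSO stock at 200x) with rotation overnight at 28 °C, then singulated into chemical-free medium and kept dark at 28 °C. Movement tracked minutes 6–24 at 120 hpf, 6 s bins log-normalized to AUC; LEL per light/dark period from first cycle; nominal water concentrations, dead/malformed larvae excluded.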

Cc1ccc2cc(C)ccc2c1 [2,6-dimethylnaphthalene]
LPR effects [1]: all but 2,6-dimethylnaphthalene caused LPR effects | fold_change ([2]; period dark, round 1, conc 3.125): -0.2769 | fold_change ([2]; period dark, round 1, conc 6.25): -0.4387 | fold_change ([2]; period dark, round 1, conc 12.5): -0.1031 | fold_change ([2]; period dark, round 1, conc 25): -0.6771 | fold_change ([2]; period dark, round 1, conc 50): -0.3061 | fold_change ([2]; period light, round 1, conc 3.125): -0.2359 | fold_change ([2]; period light, round 1, conc 6.25): -0.1972 | fold_change ([2]; period light, round 1, conc 12.5): 0.2009 | fold_change ([2]; period light, round 1, conc 25): -0.2222 | fold_change ([2]; period light, round 1, conc 50): -0.2493
